Reference: patent US9617276B2, “Compounds and methods for treating AIDS and HIV infections” (priority 2009, dated 2017)
Read-outs that look alike come from different tables or passages of the source.

Assays:
HIV-1NL4-3 = assay: p24 Gag inhibition in MT-4 cells, HIV-1NL4-3; assay type: cell-based
Method: All assays were performed in duplicate or triplicate. […] All assays were performed in duplicate or triplicate.

HIV-1APV5μM = assay: microbe, parasite or virus in culture; assay type: cell-based; details: for EC50: Human immunodeficiency virus 1, MT4, read-out: EC50 (μM), HIV-1APV5 μM; for n-fold change in EC50, HIV-1APV5 μM: compared to wild-type HIV-1NL4-3
Method: (§1) The susceptibility of HIV-1LAI and primary HIV-1 isolates to various drugs were determined as described previously (Koh et al. 2003 Antimicrob Agents Chemother 47:3123-9). Briefly, MT-2 cells (2×10^4/ml) were exposed to 100 50% tissue culture infectious doses (TCID50S) of HIV-1LAI, in the presence or absence of various concentrations of drugs in 96-well microculture plates and were incubated at 37° C. for 7 days. After 100 μl of the medium was removed from each well, 3-(4,5-dimetylthiazol-2-yl)-2,5-diphenyltetrazolium bromide (MTT) solution (10 μl, 7.5 mg/ml in phosphate-buffered saline) was added to each well in the plate, followed by incubation at 37° C. for 3 h. […] All assays were performed in duplicate or triplicate. To determine the susceptibility of primary HIV-1 isolates to drugs, phytohemagglutinin-activated peripheral blood mononuclear cells (PHA-PBMCs; 106/ml) were exposed to 50 TCID50S of each. The target cells were exposed to HIV-1104pre or drug-resistant HIV-1 in the presence or absence of various concentrations of drugs and were incubated for 7 days. Upon the conclusion of the culture, the amounts of p24 Gag protein in the supernatants were determined using a fully automated chemiluminescent enzyme immunoassay system (Lumipulse F; Fujirebio Inc., Tokyo, Japan) (Maeda et al. 2001 J Biol Chem 276:35194-200). To determine the drug susceptibility of certain laboratory HIV-1 strains, MT-4 cells were used as target cells. In brief, MT-4 cells (10^5/ml) were exposed to 100 TCID50S of drug-resistant HIV-1 strains in the presence or absence of various concentrations of drugs and on day 7 of culture, the supernatant was harvested and the amounts of p24 Gag protein were determined. […] All assays were performed in duplicate or triplicate.
(§2) Numbers in parentheses represent n-fold changes in EC50s for each isolate compared to the EC50s for wild-type HIV-1NL4-3.

HIV-1AZV5μM = assay: microbe, parasite or virus in culture; assay type: cell-based; details: for EC50: Human immunodeficiency virus 1, MT4, read-out: EC50 (μM), HIV-1AZV5 μM; for n-fold change in EC50, HIV-1AZV5 μM: compared to wild-type HIV-1NL4-3
Method: as §1, §2

HIV-1LPV5μM = assay: microbe, parasite or virus in culture; assay type: cell-based; details: for EC50: Human immunodeficiency virus 1, MT4, read-out: EC50 (μM), HIV-1LPV5 μM; for n-fold change in EC50, HIV-1LPV5 μM: compared to wild-type HIV-1NL4-3
Method: as §1, §2

HIV-1NFV5μM = assay: microbe, parasite or virus in culture; assay type: cell-based; details: for EC50: Human immunodeficiency virus 1, MT4, read-out: EC50 (μM), HIV-1NPV5 μM; for n-fold change in EC50, HIV-1NPV5 μM: compared to wild-type HIV-1NL4-3
Method: as §1, §2

HIV-1SQV5μM = assay: microbe, parasite or virus in culture; assay type: cell-based; details: for EC50: Human immunodeficiency virus 1, MT4, read-out: EC50 (μM), HIV-1SQV5 μM; for n-fold change in EC50, HIV-1SQV5 μM: compared to wild-type HIV-1NL4-3
Method: as §1, §2

HIV-1216-P50 = assay: microbe, parasite or virus in culture; assay type: cell-based, HIV-1; details: for EC50: Human immunodeficiency virus 1, MT4, read-out: EC50 (μM), HIV-1216-p50; for n-fold change in EC50, HIV-1216-p50: compared to wild-type HIV-1NL4-3
Method: (§3) Briefly, MT-2 cells (2×10^4/ml) were exposed to 100 50% tissue culture infectious doses (TCID50S) of HIV-1LAI, in the presence or absence of various concentrations of drugs in 96-well microculture plates and were incubated at 37° C. for 7 days. After 100 μl of the medium was removed from each well, 3-(4,5-dimetylthiazol-2-yl)-2,5-diphenyltetrazolium bromide (MTT) solution (10 μl, 7.5 mg/ml in phosphate-buffered saline) was added to each well in the plate, followed by incubation at 37° C. for 3 h. […] All assays were performed in duplicate or triplicate. […] To determine the drug susceptibility of certain laboratory HIV-1 strains, MT-4 cells were used as target cells. In brief, MT-4 cells (10^5/ml) were exposed to 100 TCID50S of drug-resistant HIV-1 strains in the presence or absence of various concentrations of drugs and on day 7 of culture, the supernatant was harvested and the amounts of p24 Gag protein were determined. […] All assays were performed in duplicate or triplicate.
as §2

HIV-1246-1μM = assay: microbe, parasite or virus in culture; assay type: cell-based, HIV-1; details: for EC50: Human immunodeficiency virus 1, MT4, read-out: EC50 (μM), HIV-1246-1 μM; for n-fold change in EC50, HIV-1246-1 μM: compared to wild-type HIV-1NL4-3
Method: as §3, §2

HIV-1286-1μM = assay: microbe, parasite or virus in culture; assay type: cell-based, HIV-1; details: for EC50: Human immunodeficiency virus 1, MT4, read-out: EC50 (μM), HIV-1286-1 μM; for n-fold change in EC50, HIV-1286-1 μM: compared to wild-type HIV-1NL4-3
Method: as §3, §2

HIV-1396-1μM = assay: microbe, parasite or virus in culture; assay type: cell-based, HIV-1; details: for EC50: Human immunodeficiency virus 1, MT4, read-out: EC50 (μM), HIV-1396-1 μM; for n-fold change in EC50, HIV-1396-1 μM: compared to wild-type HIV-1NL4-3
Method: as §3, §2

[1] = Human immunodeficiency virus 1, MT4, Table 7, mean ± 1 SD, read-out: EC50 (μM), HIV-1NL4-3
[2] = Human immunodeficiency virus 1, MT4, Table 9, mean ± 1 SD, read-out: EC50 (μM), HIV-1NL4-3
[3] = Human immunodeficiency virus 1, MT4, read-out: EC50 (μM), HIV-1NL4-3, Table 7, mean ± 1 SD
[4] = Human immunodeficiency virus 1, MT4, read-out: EC50 (μM), HIV-1NL4-3, Table 9, mean ± 1 SD

Row | SMILES | EC50 (HIV-1APV5μM) [µM] | EC50 (HIV-1AZV5μM) [µM] | EC50 (HIV-1LPV5μM) [µM] | EC50 (HIV-1NFV5μM) [µM] | EC50 (HIV-1SQV5μM) [µM] | EC50 (HIV-1216-P50) [µM] | EC50 (HIV-1246-1μM) [µM] | EC50 (HIV-1286-1μM) [µM] | EC50 (HIV-1396-1μM) [µM] | EC50 (HIV-1NL4-3; [3]) [µM] | EC50 (HIV-1NL4-3; [4]) [µM] | n-fold change in EC50, HIV-1APV5 μM (HIV-1APV5μM) | n-fold change in EC50, HIV-1AZV5 μM (HIV-1AZV5μM) | n-fold change in EC50, HIV-1LPV5 μM (HIV-1LPV5μM) | n-fold change in EC50, HIV-1NPV5 μM (HIV-1NFV5μM) | n-fold change in EC50, HIV-1SQV5 μM (HIV-1SQV5μM) | n-fold change in EC50, HIV-1216-p50 (HIV-1216-P50) | n-fold change in EC50, HIV-1246-1 μM (HIV-1246-1μM) | n-fold change in EC50, HIV-1286-1 μM (HIV-1286-1μM) | n-fold change in EC50, HIV-1396-1 μM (HIV-1396-1μM) | further results
1 | CC(C)CN(C[C@@H](O)[C@H](Cc1ccccc1)NC(=O)O[C@H]1CCOC1)S(=O)(=O)c1ccc(N)cc1 [APV, Amprenavir] | > 1 | 0.28 ± 0.06 | 0.26 ± 0.07 | 0.028 ± 0.005 | 0.18 ± 0.1 | 0.26 ± 0.03 | 0.34 ± 0.015 | > 1 | 0.35 ± 0.0002 |  |  |  |  |  |  |  |  |  |  |  | EC50 (HIV-1NL4-3; [1]): 0.034 ± 0.001 µM; EC50 (HIV-1NL4-3; [2]): 0.032 ± 0.001 µM
2 | COC(=O)N[C@H](C(=O)N[C@@H](Cc1ccccc1)[C@@H](O)CN(Cc1ccc(-c2ccccn2)cc1)NC(=O)[C@@H](NC(=O)OC)C(C)(C)C)C(C)(C)C [AZV, Atazanavir] | 0.006 ± 0.002 | > 1 | 0.036 ± 0.001 | 0.027 ± 0.005 | 0.21 ± 0.065 | 0.014 ± 0.003 | 0.032 ± 0.003 | 0.021 ± 0.012 | 0.024 ± 0.002 | 0.004 ± 0.0004 | 0.0032 ± 0.0001 | (2) | > 250 | (9) | (7) | (53) | (4) | (10) | (7) | (8) | 
3 | COc1ccc2c(c1)OCCCC=CCCCCN(CC(O)C(Cc1ccccc1)NC(=O)OC1COC3OCCC13)S2(=O)=O (stereo not drawn) [Compound 14b] | > 1 | 0.03 ± 0.006 | 0.35 ± 0.019 | 0.041 ± 0.006 | 0.046 ± 0.021 | 0.19 ± 0.06 | 0.33 ± 0.03 | > 1 | 0.25 ± 0.05 | 0.009 ± 0.0006 | 0.006 ± 0.005 | > 111 | (3) | (39) | (5) | (5) | (32) | (55) | > 167 | (42) | 
4 | COc1ccc2c(c1)OCCC=CCCCCN(CC(O)C(Cc1ccccc1)NC(=O)OC1COC3OCCC13)S2(=O)=O (stereo not drawn) [Compound 14c] | > 1 | 0.023 ± 0.005 | 0.035 ± 0.005 | 0.04 ± 0.017 | 0.02 ± 0.009 | 0.094 | 0.3 ± 0.01 | > 1 | 0.073 ± 0.011 | 0.005 ± 0.001 | 0.004 ± 0.001 |  |  |  |  |  |  |  |  |  | 
5 | Cc1cccc(C)c1OCC(=O)N[C@@H](Cc1ccccc1)[C@@H](O)C[C@H](Cc1ccccc1)NC(=O)[C@H](C(C)C)N1CCCNC1=O [LPV, lopinavir] | > 1 | > 1 | > 1 | 0.037 ± 0.004 | 0.12 ± 0.02 | 0.19 ± 0.06 | 0.33 ± 0.04 | > 1 | 0.28 ± 0.05 |  |  | > 22 | > 22 | > 22 | (1) | (2) | (5) | (8) | > 23 | (6) | EC50 (HIV-1NL4-3; [1]): 0.046 ± 0.025 µM; EC50 (HIV-1NL4-3; [2]): 0.035 ± 0.004 µM
6 | CCC[C@@]1(CCc2ccccc2)CC(O)=C([C@H](CC)c2cccc(NS(=O)(=O)c3ccc(C(F)(F)F)cn3)c2)C(=O)O1 [TPV, Tipranavir] | 0.22 ± 0.089 | 0.41 ± 0.047 | 0.31 ± 0.03 | 0.039 ± 0.041 | 0.022 ± 0.009 | 0.029 ± 0.0004 | 0.095 ± 0.089 | 0.037 ± 0.001 | 0.042 ± 0.002 | 0.32 ± 0.07 | 0.29 ± 0.05 | (0.7) | (1) | (1) | (0.1) | (0.1) | (0.1) | (0.3) | (0.1) | (0.1) | 
